{"source": "patent US20230210929A1", "about": "“MATERIALS AND METHODS FOR BLOCKING MALARIA INFECTION AND TRANSMISSION” (THE FLORIDA INTERNATIONAL UNIVERSITY BOARD OF TRUSTEES, priority 2021, published 2023)", "key": {"[1]": {"system": "interaction between FREP1 and P. falciparum-infected cell lysate", "test": "ELISA of FREP1 binding to P. falciparum-infected cell lysate", "conditions": "pulixin 5 μg/mL", "procedure": "Small molecules that inhibited the FREP1-Plasmodium interaction to block malaria transmission were screened. In brief, P. falciparum-infected (NF54 obtained from the BEI Resources, Manassas, Va., USA) red blood cells (iRBCs) were cultured for 15-17 days. The iRBCs suspended in PBST (PBS containing 0.2% Tween-20) was homogenized by ultra-sonication with six cycles of 10 s of pulse and 50 s of resting on ice for each period. The lysates were centrifuged at 8,000×g for 2 min to remove insoluble materials and cellular debris. Then, 96-well ELISA plates were coated with 50 μL of the iRBC lysate (2 mg/mL protein) overnight at 4° C. After coating, the wells were blocked with 100 μL of 2% bovine serum albumin (BSA) in PBS per well for 1.5 h at room temperature (RT). After removal of the blocking solution, 49 μL of FREP1 (10 μg/mL) in blocking buffer (PBS containing 2% BSA) and 1 μL of fungal extract (2 mg/mL in DMSO) were added to each well, followed by incubation for 1 h at RT. […] Finally, each well was developed with 50 μL of pNPP substrate (Sigma-Aldrich) until the colors were visible, and absorbance at 405 nm was measured. […]\nThe 15-17-day cultured P. falciparum infected cell lysate was prepared as described above. […] Rabbit anti-FREP1 polyclonal antibodies quantified the retained FREP1 as described above. After reaction with the pNPP, A405 was measured. […]"}, "[2]": {"system": "P. falciparum transmission to An. gambiae", "test": "Standard membrane feeding assay (SMFA), transmission-blocking activity by feeding", "assay_type": "in vivo", "procedure": "The 15-17-day-old cultured P. falciparum iRBCs containing 2-3% stage V gametocytes were collected and diluted with new O+ type human blood, with the same volume of heat-inactivated AB+ human serum added. The final concentration of stage V gametocytes in the blood was around 0.2%. Then, 3 μL of the candidate fungal extract or pulixin with different concentrations in DMSO was mixed with 297 μL of infected blood and was used to feed about 100 3-5-day-old An. gambiae G3 female mosquitoes for 30 min, and the engorged mosquitoes were maintained with 8% sugar in a BSL-2 insectary (28° C., 12 h light/dark cycle, 80% humidity). The midguts were dissected 7 days after infection and stained with 0.1% mercury dibromofluorescein disodium salt in PBS. The oocysts were counted under a light microscope."}, "[3]": {"system": "P. falciparum gametocytes", "test": "Conversion ratio from gametocytes to ookinetes", "assay_type": "cell-based", "conditions": "pulixin 40 μM", "procedure": "P. falciparum (NF54) was cultured in the complete RPMI-1640 medium containing 4% new 0+ human red blood cells, 10% human AB+ serum, and 12.5 μg/mL of hypoxanthine in a candle jar at 37° C. To prepare P. falciparum ookinetes, 5 mL of day-15 cultured P. falciparum containing ˜2% stage V gametocytes were transferred into a 15 mL centrifuge tube and centrifuged at 650×g for 5 min at RT. The pellet was then resuspended in 500 μL of sterile ookinete culture medium (RPMI-1640 medium containing 20% human serum AB+, 50 μg/mL of hypoxanthine, 2 g/L NaHCO3). The resuspended cells were transferred into a well of a 12-well plate and incubated at room temperature on a shaker (20 rpm) for 24 h to generate ookinetes. Finally, cell mixtures of the ookinetes, gametocytes, and asexual-stage P. falciparum were collected by centrifugation at 650×g for 5 min at RT.\nThe 15-17-day-old cultured P. falciparum was collected by centrifugation at 500×g for 3 min. The pellets were suspended in ookinete culture medium (incomplete RPMI-1640 containing 20% human serum AB+, 50 μg/mL of hypoxanthine, and 2 g/L of NaHCO3) to obtain 10^5 gametocytes per μL. […] After incubation on a shaker (20 rpm) at RT for 18-24 h, the ookinetes and gametocytes were counted using a Giemsa-stained blood smear under a bright-field microscope. The ratios of gametocytes to ookinetes were calculated."}, "[4]": {"system": "asexual-stage P. falciparum", "test": "Inhibition assay of asexual Plasmodium falciparum proliferation", "assay_type": "cell-based", "procedure": "The 3-5-day cultured iRBC were mixed with fresh human RBCs (AB+ type) in complete RPMI-1640 to prepare cultures with 0.5% parasitemia and 2% hematocrit. Pulixin was dissolved in DMSO at the concentration of 1 mg/mL and diluted with DMSO to various levels. A 2 μL pulixin solution mixed with 1 mL of cell culture was added to a 24-well plate. The plate was incubated in a candle jar at 37° C. Approximately 48 h later, the medium was replaced with fresh medium containing same concentration of pulixin. Parasitemia was recorded at 24, 48, 72, and 96 h post-incubation. The test for each concentration was replicated three times. EC50 was determined by analyzing the dose-response curve obtained with GraphPad Prism (GraphPad Software, CA, USA). The assays were repeated."}, "[5]": {"system": "human embryonic kidney 293 (HEK293) cells", "test": "General cytotoxicity MTT assay", "assay_type": "cell-based", "conditions": "24 h", "procedure": "A drug could kill a cell or inhibit the cell proliferation through general cytotoxicity. Vybrant® MTT (3-(4,5-dimethylthiazol-2-yl)-2,5-diphenyl tetrazolium bromide) Cell Proliferation Assay (Thermo Fisher) was used to analyze living cells. The human embryonic kidney 293 (HEK293) cell line was used as the experimental cells. About 20,000 HEK293 cells in 100 μL of culture medium (RPMI 1640+2 mM glutamine+10% fetal bovine serum) were seeded per well in 96-well microplates. After incubation at 37° C. with 5% CO2 for 24 h, 1 μL of pulixin in DMSO at various dilutions was added into each well to obtain a final concentration of 0, 1, 3, 10, 30, and 100 μg/mL. Three replicates were conducted for each concentration. Following the incubation at 37° C. with 5% CO2 for 24 h, 10 μL, of MTT (5 mg/mL in PBS) was added into each well and incubated for 4 h at 37° C. with 5% CO2. All but 25 μL of the medium was removed from the wells, 100 μL of DMSO was added to each well and incubated at 37° C. for 10 min to dissolve formazan crystals for measurement. Optical density was measured at an absorbance wavelength of 540 nm. The data were analyzed using ANOVA in Prism 8 (GraphPad, San Diego, Calif.). The experiment was independently performed twice."}}, "note": "Where “and” joins values, the source holds several entries; their conditions need not be identical. Identical values can stand only once. Entries after “also recorded” stand apart in the source; their conditions may differ.", "data": [{"compound": "Cc1cc(N)cc2oc(=O)c3c(O)cc(O)cc3c12", "note": "[pulixin, 3-amino-7,9-dihydroxy-1-methyl-6H-benzo[c]chromen-6-one]", "values": [{"measurement": "inhibition of the interaction between the FREP1 protein and P. falciparum-infected cell lysate", "setting": "[1]", "value": "about 50%"}, {"measurement": "EC50", "setting": "[2]; Anopheles gambiae, 168 h, read-out: EC50, concentration that inhibits 50% of infection intensity (number of oocysts per mosquito)", "value": 11, "unit": "µM"}, {"measurement": "inhibition of malaria transmission", "setting": "[2]; pulixin 40 μM in infected blood", "value": "completely inhibited; also recorded: completely blocked"}, {"measurement": "conversion of gametocytes to ookinetes versus control", "setting": "[3]", "value": "no significant difference; also recorded: did not inhibit"}, {"measurement": "EC50", "setting": "[4]; Plasmodium falciparum, 96 h, parasitemia on day 4, read-out: EC50 inhibiting development of asexual-stage P. falciparum", "value": "0.012 µg/mL and 47 nM"}, {"measurement": "P. falciparum-infected cells on day 4 versus control (0 μg/mL)", "setting": "[4]; pulixin greater than 0.01 μg/mL", "value": "Significantly fewer"}, {"measurement": "density of living HEK293 cells versus control", "setting": "[5]; pulixin 0 to 30 μg/mL (116 μM)", "value": "No significant difference"}, {"measurement": "density of living HEK293 cells versus other concentrations", "setting": "[5]; pulixin 100 μg/mL", "value": "significant reduction; also recorded: significantly lower"}]}]}
